Results from ChEMBL document CHEMBL1212738, “Phenotypic and genotypic characterization of Enterobacteriaceae with decreased susceptibility to carbapenems: results from large hospital-based surveillance studies in China” (2010).
In brackets after ≈: the same amount, converted by molar mass.

Assays:
Citrobacter freundii [1] = assay: Antimicrobial activity against Citrobacter freundii SZ63T expressing IMP-4, qnrS1by CLSI method; format: functional
Klebsiella pneumoniae [2] = assay: Antimicrobial activity against Klebsiella pneumoniae ZJ18T expressing KPC-2, DHA-1 by CLSI method; format: functional
Escherichia coli [3] = assay: Antimicrobial activity against carbapenem-resistant Escherichia coli ZJ86 expressing KPC-2, TEM-1 with ompC loss by CLSI method
Escherichia coli [4] = assay: Antimicrobial activity against Escherichia coli C600 by CLSI method; format: functional
Klebsiella pneumoniae [5] = assay: Antimicrobial activity against carbapenem-resistant Klebsiella pneumoniae ZJ18 deficient in KPC-2, SHV-28, DHA-1, ompK35 by CLSI method; format: functional
Escherichia coli [6] = assay: Antimicrobial activity against carbapenem-resistant Escherichia coli HX74 deficient in TEM-1, CTX-M-14, CTX-M-3, aac(6')-Ibcr, ompC/F by CLSI method; format: functional
Escherichia coli [7] = assay: Antimicrobial activity against Escherichia coli ZJ87 expressing KPC-2, TEM-1, ompC by CLSI method; format: functional
Klebsiella pneumoniae [8] = assay: Antimicrobial activity against Klebsiella pneumoniae ZJ70T expressing KPC-2 by CLSI method; format: functional
Klebsiella pneumoniae [9] = assay: Antimicrobial activity against Klebsiella pneumoniae WH97 expressing SHV-33, aac(6')-Ib, ompK35 DE by CLSI method; format: functional
Klebsiella pneumoniae [10] = assay: Antimicrobial activity against carbapenem-resistant Klebsiella pneumoniae XJ81 deficient in TEM-1, SHV-12, DHA-1, aac(6')-Ib, ompK35/36 by CLSI method; format: functional
Escherichia coli [11] = assay: Antimicrobial activity against Escherichia coli C600 transconjugant WH77T expressing IMP-4, TEM-1, CTX-M-3, qnrS1 by CLSI method
Klebsiella pneumoniae [12] = assay: Antimicrobial activity against carbapenem-resistant Klebsiella pneumoniae ZJ70 deficient in KPC-2, SHV-11, CTX-M-14, ompK35/36 by CLSI method; format: functional
Enterobacter cloacae [13] = assay: Antimicrobial activity against carbapenem-resistant Enterobacter cloacae WH103 deficient in IMP-4, TEM-1, CTX-M-3, qnrS1, ompC by CLSI method; format: functional
Escherichia coli [14] = assay: Antimicrobial activity against Escherichia coli C600 transconjugant SZ62T expressing IMP-4, qnrS1by CLSI method
Enterobacter cloacae [15] = assay: Antimicrobial activity against carbapenem-resistant Enterobacter cloacae SZ92 deficient in IMP-4, TEM-1, CTX-M-14, DHA-1, qnrB10/B4-like, aac(6')-Ib, ompC by CLSI method; format: functional
Klebsiella aerogenes = assay: Antimicrobial activity against carbapenem-resistant Enterobacter aerogenes PU41 deficient in CTX-M-14, DHA-1, qnrS1, ompC DEc, ompF by CLSI method; format: functional
Escherichia coli [16] = assay: Antimicrobial activity against carbapenem-resistant Escherichia coli PU101 deficient in TEM-1, CTX-M-14, CMY-2, ompC by CLSI method; format: functional
Klebsiella pneumoniae [17] = assay: Antimicrobial activity against Klebsiella pneumoniae ZJ99 expressing KPC-2, CTX-M-3, qnrS1, ompK35 DE by CLSI method; format: functional
Klebsiella pneumoniae [18] = assay: Antimicrobial activity against Klebsiella pneumoniae FZ47T expressing IMP-8, TEM-1, CTX-M-14, qnrB2, aac(6')-Ib by CLSI method; format: functional
Klebsiella pneumoniae [19] = assay: Antimicrobial activity against carbapenem-resistant Klebsiella pneumoniae GZ83 deficient in SHV-11, CTX-M-14, ompK35/36 by CLSI method; format: functional
Klebsiella pneumoniae [20] = assay: Antimicrobial activity against carbapenem-resistant Klebsiella pneumoniae ZJ71 deficient in KPC-2, TEM-1, SHV-11, CTX-M-14, ompK35 by CLSI method; format: functional
Citrobacter freundii [21] = assay: Antimicrobial activity against Citrobacter freundii RJ78 expressing CMY-2, qnrA1, aac(6')-Ib-cr, ompC by CLSI method; format: functional
Klebsiella pneumoniae [22] = assay: Antimicrobial activity against carbapenem-resistant Klebsiella pneumoniae FZ49 deficient in IMP-8, TEM-1, SHV-11, CTX-M-14, qnrB2, aac(6')-Ib, ompK35/36 by CLSI method; format: functional
Escherichia coli [23] = assay: Antimicrobial activity against Escherichia coli HX74T expressing CTX-M-3 by CLSI method; format: functional
Escherichia coli [24] = assay: Antimicrobial activity against carbapenem-resistant Escherichia coli PU96 deficient in TEM-1, CTX-M-14, CMY-2, ompC/F by CLSI method; format: functional
Klebsiella pneumoniae [25] = assay: Antimicrobial activity against carbapenem-resistant Klebsiella pneumoniae GZ66 deficient in SHV-11, DHA-1, ompK35/36 by CLSI method; format: functional
Klebsiella pneumoniae [26] = assay: Antimicrobial activity against carbapenem-resistant Klebsiella pneumoniae SZ61 deficient in TEM-1, SHV-1a, CMY-2, ompK35/36 by CLSI method; format: functional
Klebsiella pneumoniae [27] = assay: Antimicrobial activity against carbapenem-resistant Klebsiella pneumoniae ZJ69 deficient in SHV-28, ompK35/36 by CLSI method; format: functional
Escherichia coli [28] = assay: Antimicrobial activity against Escherichia coli C600 transconjugant GZ66T expressing SHV-11, DHA-1 by CLSI method
Klebsiella pneumoniae [29] = assay: Antimicrobial activity against Klebsiella pneumoniae WH77 expressing IMP-4, TEM-1, SHV-14, CTX-M-3, qnrS1 by CLSI method; format: functional
Enterobacter cloacae [30] = assay: Antimicrobial activity against carbapenem-resistant Enterobacter cloacae RJ94 deficient in IMP-4, TEM-1, CTX-M-3, ompC by CLSI method; format: functional
Klebsiella pneumoniae [31] = assay: Antimicrobial activity against Klebsiella pneumoniae ZJ99T expressing KPC-2, CTX-M-3, qnrS1 by CLSI method; format: functional
Escherichia coli [32] = assay: Antimicrobial activity against Escherichia coli C600 transconjugant XJ81T expressing TEM-1, SHV-12, aac(6')-Ib by CLSI method
Enterobacter cloacae [33] = assay: Antimicrobial activity against carbapenem-resistant Enterobacter cloacae NJ90 deficient in CTX-M-14, ompC/F by CLSI method; format: functional
Escherichia coli [34] = assay: Antimicrobial activity against Escherichia coli PU102T expressing TEM-1, CTX-M-14, CMY-2 by CLSI method; format: functional
Klebsiella pneumoniae [35] = assay: Antimicrobial activity against carbapenem-resistant Klebsiella pneumoniae PU3 deficient in DHA-1, aac(6')-Ib-cr, ompK35/36 by CLSI method; format: functional
Escherichia coli [36] = assay: Antimicrobial activity against carbapenem-resistant Escherichia coli PU102 deficient in TEM-1, CTX-M-14, CMY-2, aac(6')-Ib, ompC DEc, ompF by CLSI method; format: functional
Escherichia coli [37] = assay: Antimicrobial activity against carbapenem-resistant Escherichia coli PU43 deficient in TEM-1, CTX-M-14, aac(6')-Ib, ompC/F by CLSI method; format: functional
Escherichia coli [38] = assay: Antimicrobial activity against carbapenem-resistant Escherichia coli PU60 deficient in TEM-1, CMY-2, ompC/F by CLSI method; format: functional
Klebsiella pneumoniae [39] = assay: Antimicrobial activity against Klebsiella pneumoniae FZ49T expressing IMP-8, TEM-1, CTX-M-14, qnrB2, aac(6')-Ib by CLSI method; format: functional

In the case of `C[C@@H](O)[C@H]1C(=O)N2C(C(=O)O)=C(S[C@@H]3CN[C@H](C(=O)Nc4cccc(C(=O)O)c4)C3)[C@H](C)[C@H]12`, the MIC (Citrobacter freundii [1]) is reported as 4 µg/mL (≈ 8.41 µM), the MIC (Klebsiella pneumoniae [2]) is reported as 2 µg/mL (≈ 4.21 µM) and the MIC (Escherichia coli [3]) is reported as 32 µg/mL (≈ 67.3 µM). It also gave an MIC (Escherichia coli [4]) of 0.008 µg/mL (≈ 0.0168 µM), an MIC (Klebsiella pneumoniae [5]) of 16 µg/mL (≈ 33.6 µM) and an MIC (Escherichia coli [6]) of 16 µg/mL (≈ 33.6 µM). The MIC (Escherichia coli [7]) was 16 µg/mL (≈ 33.6 µM), the MIC (Klebsiella pneumoniae [8]) was 16 µg/mL (≈ 33.6 µM) and the MIC (Klebsiella pneumoniae [9]) was 4 µg/mL (≈ 8.41 µM). The MIC (Klebsiella pneumoniae [10]) was 64 µg/mL (≈ 135 µM), the MIC (Escherichia coli [11]) was 4 µg/mL (≈ 8.41 µM) and the MIC (Klebsiella pneumoniae [12]) was > 256 µg/mL. The MIC (Enterobacter cloacae [13]) was 32 µg/mL (≈ 67.3 µM), the MIC (Escherichia coli [14]) was 4 µg/mL (≈ 8.41 µM) and the MIC (Enterobacter cloacae [15]) was 32 µg/mL (≈ 67.3 µM). For the same compound, the MIC (Klebsiella aerogenes) was 64 µg/mL (≈ 135 µM), the MIC (Escherichia coli [16]) was 128 µg/mL (≈ 269 µM) and the MIC (Klebsiella pneumoniae [17]) was 8 µg/mL (≈ 16.8 µM). It also gave an MIC (Klebsiella pneumoniae [18]) of 4 µg/mL (≈ 8.41 µM), an MIC (Klebsiella pneumoniae [19]) of 128 µg/mL (≈ 269 µM) and an MIC (Klebsiella pneumoniae [20]) of 16 µg/mL (≈ 33.6 µM). For the same compound, the MIC (Citrobacter freundii [21]) was 8 µg/mL (≈ 16.8 µM), the MIC (Klebsiella pneumoniae [22]) was 4 µg/mL (≈ 8.41 µM) and the MIC (Escherichia coli [23]) was 0.064 µg/mL (≈ 0.135 µM). It also gave an MIC (Escherichia coli [24]) of 128 µg/mL (≈ 269 µM), an MIC (Klebsiella pneumoniae [25]) of 64 µg/mL (≈ 135 µM) and an MIC (Klebsiella pneumoniae [26]) of 64 µg/mL (≈ 135 µM). It also gave an MIC (Klebsiella pneumoniae [27]) of 32 µg/mL (≈ 67.3 µM), an MIC (Escherichia coli [28]) of 0.008 µg/mL (≈ 0.0168 µM) and an MIC (Klebsiella pneumoniae [29]) of 4 µg/mL (≈ 8.41 µM). The MIC (Enterobacter cloacae [30]) was 32 µg/mL (≈ 67.3 µM), the MIC (Klebsiella pneumoniae [31]) was 8 µg/mL (≈ 16.8 µM) and the MIC (Escherichia coli [32]) was 0.008 µg/mL (≈ 0.0168 µM). It also gave an MIC (Enterobacter cloacae [33]) of 128 µg/mL (≈ 269 µM), an MIC (Escherichia coli [34]) of 0.25 µg/mL (≈ 0.526 µM) and an MIC (Klebsiella pneumoniae [35]) of 64 µg/mL (≈ 135 µM). For the same compound, the MIC (Escherichia coli [36]) was 64 µg/mL (≈ 135 µM), the MIC (Escherichia coli [37]) was 32 µg/mL (≈ 67.3 µM) and the MIC (Escherichia coli [38]) was 64 µg/mL (≈ 135 µM). It also gave an MIC (Klebsiella pneumoniae [39]) of 4 µg/mL (≈ 8.41 µM).
